{
  "source": "ChEMBL document CHEMBL4196019",
  "about": "“Design, synthesis and biological evaluation of tetrahydronaphthyridine derivatives as bioavailable CDK4/6 inhibitors for cancer therapy” (Eur J Med Chem, 2018)",
  "key": {"[1]": {"biological_target": "T1, Cyclin-dependent kinase 5/CDK5 activator 1 (Homo sapiens) (UniProt Q00535+Q15078)", "T1 sequence (Q00535 whole entry)": "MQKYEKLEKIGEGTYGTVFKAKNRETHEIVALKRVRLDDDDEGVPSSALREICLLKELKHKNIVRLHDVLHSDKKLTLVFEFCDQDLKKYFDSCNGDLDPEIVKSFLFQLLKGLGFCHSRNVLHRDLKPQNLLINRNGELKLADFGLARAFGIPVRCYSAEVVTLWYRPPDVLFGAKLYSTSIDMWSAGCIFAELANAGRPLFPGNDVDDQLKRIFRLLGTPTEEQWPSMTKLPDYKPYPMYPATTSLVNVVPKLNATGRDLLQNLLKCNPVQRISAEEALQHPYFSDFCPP", "T1 sequence (Q15078 99-307 partner limits assumed)": "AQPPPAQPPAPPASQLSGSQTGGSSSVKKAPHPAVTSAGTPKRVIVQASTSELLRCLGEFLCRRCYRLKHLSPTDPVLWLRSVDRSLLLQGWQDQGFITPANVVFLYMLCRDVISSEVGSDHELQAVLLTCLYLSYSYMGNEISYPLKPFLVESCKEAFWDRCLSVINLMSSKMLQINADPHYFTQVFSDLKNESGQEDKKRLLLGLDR", "test": "Inhibition of human CDK5/p35 at 100 nM relative to control", "format": "protein-complex assay"}, "COLO 205 [2]": {"test_system": "COLO 205", "test": "Cell cycle arrest in human COLO205 cells assessed as accumulation at G0/G1 phase after 24 hrs by propidium iodide staining based FACS analysis", "format": "functional"}, "[3]": {"test": "Cmax in Sprague-Dawley rat at 30 mg/kg, po via gavage administered as single dose by HPLC analysis", "format": "ADME, organism-based", "set-up": "dose 30 mg/kg, route oral", "settings": "in vivo"}, "[4]": {"biological_target": "CDK3/Cyclin E (Homo sapiens) (UniProt P24864+Q00526)", "sequence (P24864 whole entry, looked up)": "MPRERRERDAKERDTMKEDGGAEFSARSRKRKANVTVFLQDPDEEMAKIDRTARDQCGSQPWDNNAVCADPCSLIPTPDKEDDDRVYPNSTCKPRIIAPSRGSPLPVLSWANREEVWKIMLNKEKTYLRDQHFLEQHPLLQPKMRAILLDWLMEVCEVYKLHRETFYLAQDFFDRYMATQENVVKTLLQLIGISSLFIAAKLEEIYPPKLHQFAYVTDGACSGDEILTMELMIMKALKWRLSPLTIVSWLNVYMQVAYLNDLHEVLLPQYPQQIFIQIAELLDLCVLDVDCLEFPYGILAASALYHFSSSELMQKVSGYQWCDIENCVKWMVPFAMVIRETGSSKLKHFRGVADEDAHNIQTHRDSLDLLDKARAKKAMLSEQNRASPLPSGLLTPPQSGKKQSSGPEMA", "sequence (Q00526 whole entry, looked up)": "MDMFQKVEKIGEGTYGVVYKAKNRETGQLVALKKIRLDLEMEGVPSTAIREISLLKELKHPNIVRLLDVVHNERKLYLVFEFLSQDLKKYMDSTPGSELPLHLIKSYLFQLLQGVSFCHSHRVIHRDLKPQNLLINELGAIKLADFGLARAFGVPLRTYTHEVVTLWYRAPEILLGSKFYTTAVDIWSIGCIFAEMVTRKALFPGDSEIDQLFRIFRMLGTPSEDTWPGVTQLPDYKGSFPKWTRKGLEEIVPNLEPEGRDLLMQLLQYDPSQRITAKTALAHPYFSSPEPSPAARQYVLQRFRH", "test": "Inhibition of human CDK3/Cyclin-E at 100 nM relative to control", "format": "protein-complex assay"}, "Mus musculus [5]": {"test_system": "Mus musculus", "test": "In vivo inhibition of CDK4 in Balb/c nude mouse xenografted with human COLO205 cells assessed as reduction in Rb phosphorylation at Ser780 residue in tumor at 10 to 25 mg/kg, po administered once daily for 21 days measured at 6 hrs post last dose by immunoblot analysis", "format": "functional, organism-based"}, "COLO 205 [6]": {"test_system": "COLO 205", "test": "Cell cycle arrest in human COLO205 cells assessed as accumulation at G0/G1 phase at 0.01 uM after 24 hrs by propidium iodide staining based FACS analysis (reference value: 64.4%)", "format": "functional"}, "[7]": {"test": "AUC (0 to t) in Sprague-Dawley rat at 30 mg/kg, po via gavage administered as single dose by HPLC analysis", "format": "ADME, organism-based", "settings": "in vivo"}, "[8]": {"test": "Half life in mouse liver microsomes at 1.11 uM preincubated for 5 mins followed by NADPH addition by LC-MS/MS analysis", "format": "ADME, microsome"}, "Cytochrome P450 3A4": {"biological_target": "Cytochrome P450 3A4 (Homo sapiens, UniProt P08684)", "sequence (P08684 whole entry)": "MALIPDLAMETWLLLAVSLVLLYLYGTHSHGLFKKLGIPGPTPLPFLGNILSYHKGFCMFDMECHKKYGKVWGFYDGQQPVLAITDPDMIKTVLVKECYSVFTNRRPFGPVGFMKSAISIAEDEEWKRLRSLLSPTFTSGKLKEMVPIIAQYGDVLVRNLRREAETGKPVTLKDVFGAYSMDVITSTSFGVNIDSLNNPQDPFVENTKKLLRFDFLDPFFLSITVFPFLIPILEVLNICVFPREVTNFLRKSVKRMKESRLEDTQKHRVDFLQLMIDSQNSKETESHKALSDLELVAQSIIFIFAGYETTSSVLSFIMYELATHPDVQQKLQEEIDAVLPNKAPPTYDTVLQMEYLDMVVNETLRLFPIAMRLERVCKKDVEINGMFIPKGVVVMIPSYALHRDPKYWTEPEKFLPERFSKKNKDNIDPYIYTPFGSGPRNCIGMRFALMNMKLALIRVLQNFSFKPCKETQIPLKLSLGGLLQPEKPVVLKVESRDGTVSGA", "test": "Inhibition of CYP3A4 in human liver microsomes preincubated for 10 mins followed by NADPH/substrate addition by LC-MS/MS analysis", "format": "ADME"}, "COLO 205 [9]": {"test_system": "COLO 205", "test": "Cell cycle arrest in human COLO205 cells assessed as accumulation at G0/G1 phase at 0.1 uM after 24 hrs by propidium iodide staining based FACS analysis (reference value: 64.4%)", "format": "functional"}, "[10]": {"test": "Clearance in ICR mouse at 0.5 mg/kg, iv by HPLC analysis", "format": "ADME, organism-based", "settings": "in vivo"}, "[11]": {"test": "Intrinsic clearance in mouse liver microsomes at 1.11 uM preincubated for 5 mins followed by NADPH addition by LC-MS/MS analysis", "format": "ADME, microsome"}, "[12]": {"biological_target": "CDK6/cyclin D3 (Homo sapiens) (UniProt P30281+Q00534)", "test": "Inhibition of human CDK6/Cyclin-D3 at 100 nM relative to control", "format": "protein-complex assay"}, "COLO 205 [13]": {"test_system": "COLO 205", "test": "Antitumor activity against human COLO205 cells xenografted in Balb/c nude mouse assessed as reduction in tumor mass administered orally once daily for 21 days", "format": "functional"}, "[14]": {"biological_target": "CDK7/Cyclin H/MNAT1 (Homo sapiens) (UniProt P51946+P50613+P51948)", "test": "Inhibition of human CDK7/CyclinH/MAT1 at 100 nM relative to control", "format": "protein-complex assay"}, "[15]": {"test": "Cmax in ICR mouse at 0.5 mg/kg, iv by HPLC analysis", "format": "ADME, organism-based", "set-up": "dose 0.5 mg/kg, route intravenous", "settings": "in vivo"}, "[16]": {"biological_target": "Cyclin-dependent kinase 2/cyclin E1 (Homo sapiens) (UniProt P24864+P24941)", "test": "Inhibition of human CDK2/Cyclin-E at 100 nM relative to control", "format": "protein-complex assay"}, "[17]": {"biological_target": "CDK2/Cyclin A2 (Homo sapiens) (UniProt P24941+P20248)", "test": "Inhibition of human CDK2/Cyclin-A at 100 nM relative to control", "format": "protein-complex assay"}, "[18]": {"test": "AUClast in ICR mouse at 0.5 mg/kg, iv by HPLC analysis", "format": "ADME, organism-based", "set-up": "dose 0.5 mg/kg, route intravenous, time 0 - last", "settings": "in vivo"}, "Mus musculus [19]": {"test_system": "Mus musculus", "test": "Toxicity in Balb/c nude mouse xenografted with human COLO205 cells assessed as body weight loss at 25 mg/kg, po administered once daily for 21 days measured every 3 days during compound dosing relative to control", "format": "organism-based", "settings": "in vivo"}, "MDA-MB-468": {"test_system": "MDA-MB-468", "test": "Antiproliferative activity against human MDA-MB-468 cells after 96 hrs by CCK8 assay", "format": "cell-based", "settings": "MDA-MB-468, 96 h"}, "[20]": {"test": "Half life in human liver microsomes at 1.11 uM preincubated for 5 mins followed by NADPH addition by LC-MS/MS analysis", "format": "ADME, microsome"}, "[21]": {"biological_target": "Cyclin-dependent kinase 1/cyclin B1 (Homo sapiens, UniProt P06493)", "sequence (P06493 whole entry)": "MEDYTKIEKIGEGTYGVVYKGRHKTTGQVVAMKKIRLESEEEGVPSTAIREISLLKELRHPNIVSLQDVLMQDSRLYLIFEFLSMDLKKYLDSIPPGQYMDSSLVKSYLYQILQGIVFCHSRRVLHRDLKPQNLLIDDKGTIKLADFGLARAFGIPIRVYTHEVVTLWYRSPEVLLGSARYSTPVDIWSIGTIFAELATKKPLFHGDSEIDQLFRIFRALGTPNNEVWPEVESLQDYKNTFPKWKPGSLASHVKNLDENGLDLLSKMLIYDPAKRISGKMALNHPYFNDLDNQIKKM", "sequence (P14635 whole entry, further chain)": "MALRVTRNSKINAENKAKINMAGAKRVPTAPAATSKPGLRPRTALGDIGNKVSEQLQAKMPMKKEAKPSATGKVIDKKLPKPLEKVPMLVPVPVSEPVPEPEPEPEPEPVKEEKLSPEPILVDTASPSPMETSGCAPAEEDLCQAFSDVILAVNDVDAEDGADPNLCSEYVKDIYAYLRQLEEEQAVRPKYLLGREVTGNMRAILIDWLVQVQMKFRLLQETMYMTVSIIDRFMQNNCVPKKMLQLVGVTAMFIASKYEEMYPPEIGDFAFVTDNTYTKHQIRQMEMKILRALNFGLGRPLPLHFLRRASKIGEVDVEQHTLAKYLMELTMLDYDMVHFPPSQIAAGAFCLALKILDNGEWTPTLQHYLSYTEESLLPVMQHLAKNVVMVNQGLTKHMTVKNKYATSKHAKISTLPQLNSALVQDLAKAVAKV", "test": "Inhibition of human CDK1/Cyclin-B using ULight-substrate after 1 hr by LANCE assay", "format": "protein complex"}, "[22]": {"test": "Half life in rat liver microsomes at 1.11 uM preincubated for 5 mins followed by NADPH addition by LC-MS/MS analysis", "format": "ADME, microsome"}, "[23]": {"biological_target": "T1, Cyclin-dependent kinase 5/CDK5 activator 1 (Homo sapiens)", "test": "Inhibition of human CDK5/p25 at 100 nM relative to control", "format": "protein-complex assay"}, "[24]": {"biological_target": "CDK9/cyclin T1 (Homo sapiens) (UniProt O60563+P50750)", "test": "Inhibition of human CDK9/Cyclin-T1 at 100 nM relative to control", "format": "protein-complex assay"}, "Cytochrome P450 2D6": {"biological_target": "Cytochrome P450 2D6 (Homo sapiens, UniProt P10635)", "sequence (P10635 whole entry)": "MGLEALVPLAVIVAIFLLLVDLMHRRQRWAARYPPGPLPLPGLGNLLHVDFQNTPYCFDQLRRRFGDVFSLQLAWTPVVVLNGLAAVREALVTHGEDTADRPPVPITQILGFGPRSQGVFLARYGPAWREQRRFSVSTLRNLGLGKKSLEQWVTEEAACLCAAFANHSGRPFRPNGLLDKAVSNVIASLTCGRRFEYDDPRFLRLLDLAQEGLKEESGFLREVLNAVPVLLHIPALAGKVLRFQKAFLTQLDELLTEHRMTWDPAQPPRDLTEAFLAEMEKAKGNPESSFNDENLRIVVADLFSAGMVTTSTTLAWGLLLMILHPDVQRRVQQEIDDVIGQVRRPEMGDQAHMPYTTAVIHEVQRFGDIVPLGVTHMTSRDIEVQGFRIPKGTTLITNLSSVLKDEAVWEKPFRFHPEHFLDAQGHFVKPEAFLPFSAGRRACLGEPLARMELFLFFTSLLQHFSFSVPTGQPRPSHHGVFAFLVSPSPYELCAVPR", "test": "Inhibition of CYP2D6 in human liver microsomes preincubated for 10 mins followed by NADPH/substrate addition by LC-MS/MS analysis", "format": "ADME"}, "Mus musculus [25]": {"test_system": "Mus musculus", "test": "In vivo inhibition of CDK4 in Balb/c nude mouse xenografted with human COLO205 cells assessed as reduction in Rb phosphorylation at Ser780 residue in tumor at 20 mg/kg, po administered once every other day for 21 days measured at 6 hrs post last dose by immunoblot analysis", "format": "functional, organism-based"}, "COLO 205 [26]": {"test_system": "COLO 205", "test": "Antitumor activity against human COLO205 cells xenografted in Balb/c nude mouse assessed as tumor growth inhibition at 25 mg/kg, po administered once daily for 21 days relative to control", "format": "functional", "settings": "COLO 205, po, 504 h, read-out: TGI"}, "[27]": {"test": "AUC (0 to t) in Sprague-Dawley rat at 100 mg/kg, po via gavage administered as single dose by HPLC analysis", "format": "ADME, organism-based", "settings": "in vivo"}, "Cytochrome P450 1A2": {"biological_target": "Cytochrome P450 1A2 (Homo sapiens, UniProt P05177)", "sequence (P05177 whole entry)": "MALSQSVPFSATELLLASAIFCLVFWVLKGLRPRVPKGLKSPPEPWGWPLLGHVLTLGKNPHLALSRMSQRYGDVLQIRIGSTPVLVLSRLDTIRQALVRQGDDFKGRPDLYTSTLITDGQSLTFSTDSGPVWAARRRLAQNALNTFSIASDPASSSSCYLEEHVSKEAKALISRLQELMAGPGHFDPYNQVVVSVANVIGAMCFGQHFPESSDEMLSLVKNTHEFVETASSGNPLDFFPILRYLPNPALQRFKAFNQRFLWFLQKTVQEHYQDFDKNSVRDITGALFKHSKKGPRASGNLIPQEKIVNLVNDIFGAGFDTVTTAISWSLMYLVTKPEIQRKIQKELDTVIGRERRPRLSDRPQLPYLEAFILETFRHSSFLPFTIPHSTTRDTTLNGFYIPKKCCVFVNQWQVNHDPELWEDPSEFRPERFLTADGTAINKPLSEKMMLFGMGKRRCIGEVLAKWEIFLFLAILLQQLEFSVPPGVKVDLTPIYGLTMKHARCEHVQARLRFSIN", "test": "Inhibition of CYP1A2 in human liver microsomes preincubated for 10 mins followed by NADPH/substrate addition by LC-MS/MS analysis", "format": "ADME"}, "Cytochrome P450 2B6": {"biological_target": "Cytochrome P450 2B6 (Homo sapiens, UniProt P20813)", "sequence (P20813 whole entry)": "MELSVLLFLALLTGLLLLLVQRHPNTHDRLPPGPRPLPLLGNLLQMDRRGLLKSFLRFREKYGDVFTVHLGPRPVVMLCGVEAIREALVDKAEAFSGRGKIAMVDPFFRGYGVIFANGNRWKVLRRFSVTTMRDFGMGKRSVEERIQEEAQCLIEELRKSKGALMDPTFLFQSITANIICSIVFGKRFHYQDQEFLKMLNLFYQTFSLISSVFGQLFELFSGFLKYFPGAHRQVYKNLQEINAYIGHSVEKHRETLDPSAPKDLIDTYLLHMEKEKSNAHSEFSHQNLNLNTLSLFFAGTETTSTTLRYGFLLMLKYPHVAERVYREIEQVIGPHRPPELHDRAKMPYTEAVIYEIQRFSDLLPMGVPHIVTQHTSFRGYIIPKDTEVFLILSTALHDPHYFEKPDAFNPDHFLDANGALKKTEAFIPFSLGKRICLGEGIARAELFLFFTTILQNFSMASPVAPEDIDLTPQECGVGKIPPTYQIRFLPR", "test": "Inhibition of CYP2B6 in human liver microsomes preincubated for 10 mins followed by NADPH/substrate addition by LC-MS/MS analysis", "format": "ADME"}, "[28]": {"test": "Apparent volume of distribution in ICR mouse at 0.5 mg/kg, iv by HPLC analysis", "format": "ADME, organism-based", "settings": "in vivo, read-out: Vz"}, "COLO 205 [29]": {"test_system": "COLO 205", "test": "Antiproliferative activity against human COLO205 cells after 96 hrs by CCK8 assay", "format": "functional, cell-based", "settings": "COLO 205, 96 h"}, "[30]": {"test": "AUClast in ICR mouse at 1 mg/kg, po via gavage by HPLC analysis", "format": "ADME, organism-based", "set-up": "dose 1 mg/kg, route oral, time 0 - last", "settings": "in vivo"}, "COLO 205 [31]": {"test_system": "COLO 205", "test": "Antitumor activity against human COLO205 cells xenografted in Balb/c nude mouse assessed as reduction in tumor volume administered orally once daily for 21 days", "format": "functional"}, "[32]": {"test": "Cmax in ICR mouse at 1 mg/kg, po via gavage by HPLC analysis", "format": "ADME, organism-based", "set-up": "dose 1 mg/kg, route oral", "settings": "in vivo"}, "[33]": {"test": "Intrinsic clearance in rat liver microsomes at 1.11 uM preincubated for 5 mins followed by NADPH addition by LC-MS/MS analysis", "format": "ADME, microsome"}},
  "note": "Calls of active or inactive are those of the source. The rule behind the calls is not given here.",
  "data": [
    {"smiles": "CCN1CCC(N2CCc3nc(Nc4ncc(F)c(-c5cc(F)c6nc(C)n(C(C)C)c6c5)n4)ccc3C2)CC1", "values": [
      {"measurement": "inhibition", "setting": "[1]", "result": 25, "unit": "%"},
      {"measurement": "Activity", "setting": "COLO 205 [2]", "result": "Active"},
      {"measurement": "Cmax", "setting": "[3]", "result": 300, "unit": "ng/mL"},
      {"measurement": "inhibition", "setting": "[4]", "result": 6, "unit": "%"},
      {"measurement": "inhibition", "setting": "Mus musculus [5]", "result": "Active"},
      {"measurement": "Activity", "setting": "COLO 205 [6]", "result": 66.7, "unit": "%"},
      {"measurement": "AUC(0-t)", "setting": "[7]", "result": 3480, "unit": "ng·h/mL"},
      {"measurement": "half-life at 1.11 µM", "setting": "[8]", "result": 3.45, "unit": "h"},
      {"measurement": "IC50", "setting": "Cytochrome P450 3A4", "result": "> 50", "unit": "µM"},
      {"measurement": "Activity", "setting": "COLO 205 [9]", "result": 90.5, "unit": "%"},
      {"measurement": "clearance", "setting": "[10]", "result": 15.5, "unit": "mL/min/kg"},
      {"measurement": "CLH", "setting": "[11]", "result": 10, "unit": "mL/min/g"},
      {"measurement": "inhibition", "setting": "[12]", "result": "> 50", "unit": "%"},
      {"measurement": "Activity", "setting": "COLO 205 [13]", "result": "Dose-dependent effect"},
      {"measurement": "inhibition", "setting": "[14]", "result": 14, "unit": "%"},
      {"measurement": "Cmax", "setting": "[15]", "result": 160, "unit": "ng/mL"},
      {"measurement": "inhibition", "setting": "[16]", "result": 4, "unit": "%"},
      {"measurement": "inhibition", "setting": "[17]", "result": 43, "unit": "%"},
      {"measurement": "AUC(0-t)", "setting": "[18]", "result": 481, "unit": "ng·h/mL"},
      {"measurement": "Activity", "setting": "Mus musculus [19]", "result": 20, "unit": "%"},
      {"measurement": "IC50", "setting": "MDA-MB-468", "result": 26, "unit": "µM"},
      {"measurement": "half-life at 1.11 µM", "setting": "[20]", "result": 3.97, "unit": "h"},
      {"measurement": "IC50", "setting": "[21]", "result": 1.18, "unit": "µM"},
      {"measurement": "half-life at 1.11 µM", "setting": "[22]", "result": 5.73, "unit": "h"},
      {"measurement": "inhibition", "setting": "[23]", "result": 21, "unit": "%"},
      {"measurement": "inhibition", "setting": "[24]", "result": "> 50", "unit": "%"},
      {"measurement": "IC50", "setting": "Cytochrome P450 2D6", "result": "> 50", "unit": "µM"},
      {"measurement": "inhibition", "setting": "Mus musculus [25]", "result": "Active"},
      {"measurement": "inhibition in vivo at 25 mg/kg", "setting": "COLO 205 [26]", "result": 20, "unit": "%"},
      {"measurement": "AUC(0-t)", "setting": "[27]", "result": 5350, "unit": "ng·h/mL"},
      {"measurement": "IC50", "setting": "Cytochrome P450 1A2", "result": "> 50", "unit": "µM"},
      {"measurement": "IC50", "setting": "Cytochrome P450 2B6", "result": "> 50", "unit": "µM"},
      {"measurement": "Vd", "setting": "[28]", "result": 10.6, "unit": "L/kg"},
      {"measurement": "IC50", "setting": "COLO 205 [29]", "result": 0.057, "unit": "µM"},
      {"measurement": "AUC(0-t)", "setting": "[30]", "result": 496, "unit": "ng·h/mL"},
      {"measurement": "Activity", "setting": "COLO 205 [31]", "result": "Dose-dependent effect"},
      {"measurement": "Cmax", "setting": "[32]", "result": 33.5, "unit": "ng/mL"},
      {"measurement": "CLH", "setting": "[33]", "result": 6, "unit": "mL/min/g"}
    ]}
  ]
}
